Values quoted from earlier work as cited in patent US20250090617A1, “FORMULATIONS FOR TREATING OBESITY AND DIABETES AND FOR PROVIDING OTHER HEALTH RELATED BENEFITS” (Healthrite Partners, LLC, priority 2019, published 2025).

Tested on: cellular ATP
Conditions: several studies, including clinical studies in humans

SMILES | effect on cellular ATP
Oc1ncnc2[nH]ncc12 [Allopurinol] | increase in cellular ATP
Cc1nc(-c2ccc(OCC(C)C)c(C#N)c2)sc1C(=O)O [Febuxostat] | increase in cellular ATP
OC[C@H]1O[C@@H](n2cnc3c(O)ncnc32)[C@H](O)[C@@H]1O [Inosine] | did not affect ATP levels
